Consider nine molecules from PubChem BioAssay (NCI).

Common to all, as to assay: DTP human tumour cell line panel, 48 h
For experiment [1], the system named is SK-MEL-28 melanoma.
Experiment [2] concerns SW-620 colon.
Experiment [3] deals with HL-60(TB) leukemia.
Experiment [4] deals with SF-295 CNS.
The test system of experiment [5] is NCI-H23 lung.
Experiment [6] has as its system MDA-MB-231 breast.
Experiment [7] relates to MCF7 breast.
Experiment [8] deals with EKVX NSCLC.
The subject of experiment [9] is M14 melanoma.
In experiment [10] the test system is HOP-92 NSCLC.

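Step 1: Grow cells in 96-well plates. Step 2: Expose to compound for 48 hours at 5 concentrations. Step 3: Interpolate endpoints linearly; if unreached, use highest concentration. At the GI50, growth is halved. TGI denotes the concentration required for complete inhibition of growth.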 A value given as a limit tells only on which side of the number the result lay.

As for `CCOC(=O)C1=C(C)NC2SC(=O)/C(=C\c3ccccc3O)N2C1c1ccccc1` (centres undefined), the GI50 in experiment [1] was 20.5 µM; in experiment [2] it was 38.5 µM; in experiment [3], 19.6 µM; in [4], 27.2 µM; in [5] it was 24.5 µM; in experiment [6] it was 33.8 µM. In addition, the GI50 in experiment [7] was 86 µM; in experiment [8] it was 34.1 µM; in experiment [9] it was 24 µM; in experiment [10] it was 20.8 µM. In addition, the total growth inhibition concentration (TGI) in experiment [1] was 56.8 µM; in experiment [2] it was > 100 µM; in [3] it was 54.4 µM; in experiment [4], > 100 µM; in experiment [5], 53.5 µM; in experiment [6], 88.4 µM. Besides, the concentration for total growth inhibition (TGI) in [7] was > 100 µM; in experiment [8], > 100 µM; in experiment [9], 65.5 µM; in experiment [10], 43.2 µM.
`O=C(Nc1ccc(CN2CCOCC2)cc1)c1[nH]ncc1Nc1ncnc2sccc12`: the GI50 was 0.629 µM in [1]; 0.418 µM in experiment [2]; 0.249 µM in experiment [3]; 0.484 µM in experiment [4]; 0.358 µM in [5]; 0.854 µM in experiment [6]. Moreover, the 50% growth inhibitory concentration (GI50) in [7] is 0.265 µM; in experiment [8] it was 0.805 µM; in experiment [9], 0.56 µM; in experiment [10] it was 5.52 µM. Further, the concentration for total growth inhibition (TGI) in [1] was 16.8 µM; in experiment [2] it was > 100 µM; in experiment [3] it was 0.72 µM; in [4], 16.5 µM; in experiment [5], 2.49 µM; in experiment [6], > 100 µM. The TGI in [7] was > 100 µM; in [8] it was 4.3 µM; in experiment [9], 13 µM; in [10], > 100 µM.
Regarding `O=C(Nc1cccc(Oc2nnc(Cl)c3ccccc23)c1)Nc1ccc(Cl)c(C(F)(F)F)c1`, the GI50 in experiment [1] was 0.933 µM; in [2], 1.92 µM; in experiment [3] it was 0.372 µM; in experiment [4] it was 0.657 µM; in experiment [5], 0.907 µM; in experiment [6], 0.358 µM. Also, the GI50 is 0.571 µM in experiment [7], 0.646 µM in experiment [8], 0.707 µM in experiment [9] and 0.352 µM in experiment [10]. Moreover, the total growth inhibition concentration (TGI) was found to be 3.54 µM in experiment [1]; 4.9 µM in experiment [2]; 6.06 µM in experiment [3]; 3.7 µM in [4]; 4.36 µM in [5]; 2.44 µM in [6]. Also, the total growth inhibition concentration (TGI) in experiment [7] was determined as 3.03 µM; in experiment [8], 6.49 µM; in [9] it was 3.16 µM; in experiment [10], 1.96 µM.
As to `O=C1C2=Nc3ccccc3C(O)N2c2ccccc21` (centres undefined), the TGI in [1] was > 68.7 µM; in experiment [2], > 100 µM; in [3], 34.2 µM; in [4], > 100 µM; in experiment [5], 28.8 µM; in experiment [6], > 100 µM. Moreover, the TGI in experiment [7], in experiment [8], in experiment [9] and in experiment [10] was > 100 µM in each case.
With `Cn1nnnc1N/N=C/c1ccccc1`, the concentration for total growth inhibition (TGI) in experiment [1], in experiment [2], in experiment [3], in experiment [4], in experiment [5] and in [6] was > 10 µM in each case. For the same molecule, the TGI in experiment [7], in experiment [8], in experiment [9] and in experiment [10] was > 10 µM in each case.
Consider `Cc1ccc(Nc2n[nH]c(=S)s2)cc1`, for which the concentration for total growth inhibition (TGI) in experiment [1], in experiment [2], in experiment [3], in [4], in experiment [5] and in experiment [6] was > 100 µM each time. Further, the TGI in experiment [7], in [8], in [9] and in experiment [10] was > 100 µM throughout.
Consider `CCOC(=O)c1c2c(n(Cc3ccccc3)c1C)-c1ccccc1C(=O)C2=O`, for which the GI50 in experiment [1] is 16.4 µM; in experiment [2], 11.7 µM; in [3], 79.4 µM; in experiment [4], 19.6 µM; in experiment [5], 12.1 µM; in [6], 13.1 µM. For the same molecule, the GI50 in experiment [7] is 5.23 µM; in [8] it was 11.9 µM; in experiment [9], 11.9 µM; in [10], 6.54 µM. Further, the TGI is 41.4 µM in [1]; 28.4 µM in experiment [2]; > 100 µM in [3]; 48.4 µM in experiment [4]; 27 µM in experiment [5]; 27.9 µM in experiment [6]. In addition, the TGI amounted to 20.9 µM in experiment [7], 29.2 µM in experiment [8], 24.5 µM in [9] and 21.6 µM in experiment [10].
As for `CNC(=O)c1ccc2cc(C3(O)CCn4cncc43)ccc2c1` (centres undefined), the GI50 in experiment [1] is > 100 µM; in experiment [2] it was > 100 µM; in experiment [3] it was > 73.5 µM; in [4], > 100 µM; in experiment [5] it was > 100 µM; in experiment [6], > 100 µM. The GI50 in experiment [7], in [8], in experiment [9] and in experiment [10] was > 100 µM each time. Also, the TGI in experiment [1], in experiment [2], in [3], in experiment [4], in [5] and in experiment [6] was > 100 µM each time. Besides, the concentration for total growth inhibition (TGI) in experiment [7], in experiment [8], in [9] and in [10] was > 100 µM in each case.
As for `C/C1=C/C2=CC(C)C[C@@H]2C(=O)[C@]2(C)C(=O)CC(C)(C)[C@H]2CC1=O` (some centres undefined), the concentration for total growth inhibition (TGI) in experiment [2], in experiment [3], in experiment [4], in experiment [5], in [6] and in [7] was > 50 µM in each case. The TGI in [8], in experiment [9] and in experiment [10] was > 50 µM throughout.
